Assay results as given in patent publication US9233964B2, “Sulfamide piperazine derivatives as protein tyrosine kinase inhibitors and pharmaceutical use therof” (LEO PHARMA A/S, priority 2011, dated 2016).
pEC50: −log10 of the molar value.

Assays:
Assay type in all cases: biochemical
TYK2 = target: T1, TYK2 (Homo sapiens, UniProt P29597); assay: JAK kinase assay (HTRF, phosphorylation of synthetic peptide), TYK2; settings: catalytic domain, ATP at Km (13 μM); read-out: TYK2 kinase inhibitory activity (EC50)
T1 construct: JAK1 (aa 850-1154) and TYK2 (aa 871-1187) are expressed with an N-terminally fused GST-tag; GST (N); purchased Carna Biosciences, Inc; host or cells: baculovirus expression system
T1 sequence (P29597 871-1187): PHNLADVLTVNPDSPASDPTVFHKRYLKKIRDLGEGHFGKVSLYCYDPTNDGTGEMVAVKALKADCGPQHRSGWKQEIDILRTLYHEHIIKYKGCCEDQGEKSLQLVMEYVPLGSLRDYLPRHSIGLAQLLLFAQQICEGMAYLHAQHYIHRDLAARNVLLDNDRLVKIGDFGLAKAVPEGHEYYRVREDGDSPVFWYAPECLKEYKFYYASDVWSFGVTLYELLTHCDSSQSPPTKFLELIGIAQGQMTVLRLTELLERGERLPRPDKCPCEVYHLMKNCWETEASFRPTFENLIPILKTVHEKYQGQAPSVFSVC
Summary of the method: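 1 µM biotinylated TK peptide at Km ATP in pH 7.0 Hepes, 20-30 min RT. EDTA stop; overnight streptavidin-XL665/cryptate HTRF read.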

JAK1 = target: T2, JAK1 (Homo sapiens, UniProt P23458); assay: JAK kinase assay (HTRF, phosphorylation of synthetic peptide), JAK1; settings: catalytic domain, ATP at Km (7 μM); read-out: JAK1 kinase inhibitory activity (EC50)
T2 construct: JAK1 (aa 850-1154) and TYK2 (aa 871-1187) are expressed with an N-terminally fused GST-tag; GST (N); purchased Carna Biosciences, Inc; host or cells: baculovirus expression system
Summary of the method: (§1)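 Catalytic-domain human JAK1 (GST-tagged, aa 850-1154) or His-tagged JAK2, baculovirus-expressed, phosphorylated 1 µM biotinylated TK peptide at Km ATP (JAK1 7 µM, 10 mM MgCl2, 50 nM SEB; JAK2 4 µM, 5 mM MgCl2) in pH 7.0 Hepes, 20-30 min RT. EDTA stop; overnight streptavidin-XL665/cryptate HTRF read.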

JAK3 = target: T3, JAK3 (Homo sapiens, UniProt P52333); assay: JAK kinase assay (HTRF, phosphorylation of synthetic peptide), JAK3; settings: catalytic domain, ATP at Km (2 μM); read-out: JAK3 kinase inhibitory activity (EC50)
T3 construct: All four purified enzymes contain only the catalytic domain; His (N); purchased Carna Biosciences, Inc; host or cells: baculovirus expression system

JAK2 = target: T4, JAK2 (Homo sapiens, UniProt O60674); assay: JAK kinase assay (HTRF, phosphorylation of synthetic peptide), JAK2; settings: catalytic domain, ATP at Km (4 μM); read-out: JAK2 kinase inhibitory activity (EC50)
T4 construct: All four purified enzymes contain only the catalytic domain; His (N); purchased Carna Biosciences, Inc; host or cells: baculovirus expression system
Summary of the method: as §1

T3 sequence (P52333 822-1111 limits assumed): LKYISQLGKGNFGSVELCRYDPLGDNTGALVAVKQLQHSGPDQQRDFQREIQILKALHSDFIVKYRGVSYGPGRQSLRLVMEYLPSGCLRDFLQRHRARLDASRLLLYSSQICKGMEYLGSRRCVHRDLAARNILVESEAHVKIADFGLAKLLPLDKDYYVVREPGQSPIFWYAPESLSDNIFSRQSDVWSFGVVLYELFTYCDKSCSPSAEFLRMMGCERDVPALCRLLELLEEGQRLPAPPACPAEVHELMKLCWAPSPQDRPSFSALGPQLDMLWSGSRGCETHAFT
T4 sequence (O60674 849-1124 limits assumed): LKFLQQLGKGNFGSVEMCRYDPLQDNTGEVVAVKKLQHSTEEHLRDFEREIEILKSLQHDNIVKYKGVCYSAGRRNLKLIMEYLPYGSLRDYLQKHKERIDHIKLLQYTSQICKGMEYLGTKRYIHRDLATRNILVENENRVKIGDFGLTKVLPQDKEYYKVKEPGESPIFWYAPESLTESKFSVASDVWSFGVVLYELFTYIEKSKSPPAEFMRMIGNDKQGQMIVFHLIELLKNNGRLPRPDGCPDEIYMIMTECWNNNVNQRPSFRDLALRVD
T2 sequence (P23458 850-1154): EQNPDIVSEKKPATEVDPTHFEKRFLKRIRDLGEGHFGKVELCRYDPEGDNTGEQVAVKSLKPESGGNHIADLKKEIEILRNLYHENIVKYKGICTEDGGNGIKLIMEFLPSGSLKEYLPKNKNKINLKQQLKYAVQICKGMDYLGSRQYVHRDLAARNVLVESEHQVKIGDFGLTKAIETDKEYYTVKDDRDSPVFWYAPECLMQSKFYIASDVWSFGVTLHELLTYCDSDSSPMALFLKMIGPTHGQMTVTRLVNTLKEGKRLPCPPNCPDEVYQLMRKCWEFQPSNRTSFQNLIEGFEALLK

pEC50 (TYK2)	pEC50 (JAK1)	pEC50 (JAK3)	pEC50 (JAK2)	Compound
6.30 to 7.00	> 7.00	> 7.00	> 7.00	COCCS(=O)(=O)N1CCC(CN(C)S(=O)(=O)N2CCN(c3ncnc4[nH]ccc34)CC23CC3)C1 (stereo not shown) [Example 120, N-[[1-(2-methoxyethylsulfonyl)pyrrolidin-3-yl]methyl]-N-methyl-5-(7H-pyrrolo[2,3-d]pyrimidin-4-yl)-5,8-diazaspiro[2.5]octane-8-sulfonamide]
> 7.00	> 7.00	> 7.00	> 7.00	CN(C[C@@H]1CC(F)(F)CN1S(=O)(=O)CC1CC1)S(=O)(=O)N1CCN(c2ncnc3[nH]ccc23)CC12CC2 [Example 164, N-[[(2S)-1-(cyclopropylmethylsulfonyl)-4,4-difluoro-pyrrolidin-2-yl]methyl]-N-methyl-5-(7H-pyrrolo[2,3-d]pyrimidin-4-yl)-5,8-diazaspiro[2.5]octane-8-sulfonamide]
> 7.00	> 7.00	> 7.00	> 7.00	N#CCN(CCc1ccccc1)S(=O)(=O)N1CCN(c2ncnc3[nH]ccc23)CC12CC2 [Example 19, 7-(7H-Pyrrolo[2,3-d]pyrimidin-4-yl)-4,7-diaza-spiro[2.5]octane-4-sulfonic acid cyanomethyl-phenethyl-amide]
< 6.30	> 7.00	6.30 to 7.00	> 7.00	CN(CCCc1ccccc1)S(=O)(=O)N1CCN(c2ncnc3[nH]ccc23)CC12CC2 [Example 10, 7-(7H-Pyrrolo[2,3-d]pyrimidin-4-yl)-4,7-diaza-spiro[2.5]octane-4-sulfonic acid methyl-(3-phenyl-propyl)-amide]
< 6.30	< 6.30	< 6.30	< 6.30	CN(CC1CCC(C(C)(C)C)CC1)S(=O)(=O)N1CCN(c2ncnc3[nH]ccc23)CC12CC2 (stereo not shown) [Example 84, N-[(4-tert-butylcyclohexyl)methyl]-N-methyl-5-(7H-pyrrolo[2,3-d]pyrimidin-4-yl)-5,8-diazaspiro[2.5]octane-8-sulfonamide]
< 6.30	6.30 to 7.00	< 6.30	6.30 to 7.00	O=S(=O)(N(Cc1ccccc1)Cc1ccccc1)N1CCN(c2ncnc3[nH]ccc23)CC12CC2 [Example 146, N,N-dibenzyl-5-(7H-pyrrolo[2,3-d]pyrimidin-4-yl)-5,8-diazaspiro[2.5]octane-8-sulfonamide]
< 6.30	6.30 to 7.00	6.30 to 7.00	> 7.00	CC(C)CN(CCc1ccccc1)S(=O)(=O)N1CCN(c2ncnc3[nH]ccc23)CC12CC2 [Example 6, 7-(7H-Pyrrolo[2,3-d]pyrimidin-4-yl)-4,7-diaza-spiro[2.5]octane-4-sulfonic acid isobutyl-phenethyl-amide]
< 6.30	6.30 to 7.00	< 6.30	6.30 to 7.00	CN(Cc1ccc(OC(F)(F)F)cc1)S(=O)(=O)N1CCN(c2ncnc3[nH]ccc23)CC12CC2 [Example 80, N-methyl-5-(7H-pyrrolo[2,3-d]pyrimidin-4-yl)-N-[[4-(trifluoromethoxy)phenyl]methyl]-5,8-diazaspiro[2.5]octane-8-sulfonamide]
6.30 to 7.00	6.30 to 7.00	6.30 to 7.00	> 7.00	CC(C)NS(=O)(=O)N1CCN(c2ncnc3[nH]ccc23)CC12CC2 [Example 50, 7-(7H-Pyrrolo[2,3-d]pyrimidin-4-yl)-4,7-diaza-spiro[2.5]octane-4-sulfonic acid isopropylamide]
6.30 to 7.00	> 7.00	> 7.00	> 7.00	O=S(=O)(N(CCCO)CCc1ccccc1)N1CCN(c2ncnc3[nH]ccc23)CC12CC2 [Example 5, 7-(7H-Pyrrolo[2,3-d]pyrimidin-4-yl)-4,7-diaza-spiro[2.5]octane-4-sulfonic acid (3-hydroxy-propyl)-phenethyl-amide]
6.30 to 7.00	> 7.00	> 7.00	> 7.00	CN(CC1CCN(S(C)(=O)=O)C1)S(=O)(=O)N1CCN(c2ncnc3[nH]ccc23)CC12CC2 (stereo not shown) [Example 119, N-methyl-N-[(1-methylsulfonylpyrrolidin-3-yl)methyl]-5-(7H-pyrrolo[2,3-d]pyrimidin-4-yl)-5,8-diazaspiro[2.5]octane-8-sulfonamide]
6.30 to 7.00	> 7.00	6.30 to 7.00	> 7.00	O=S(=O)(NCc1ccccc1)N1CCN(c2ncnc3[nH]ccc23)CC12CC2 [Example 147, N-benzyl-5-(7H-pyrrolo[2,3-d]pyrimidin-4-yl)-5,8-diazaspiro[2.5]octane-8-sulfonamide]
6.30 to 7.00	> 7.00	6.30 to 7.00	> 7.00	CN(CCOc1ccccc1)S(=O)(=O)N1CCN(c2ncnc3[nH]ccc23)CC12CC2 [Example 31, 7-(7H-Pyrrolo[2,3-d]pyrimidin-4-yl)-4,7-diaza-spiro[2.5]octane-4-sulfonic acid methyl-(2-phenoxy-ethyl)-amide]
6.30 to 7.00	> 7.00	> 7.00	> 7.00	CN(C(=O)C1CCS(=O)(=O)C1)S(=O)(=O)N1CCN(c2ncnc3[nH]ccc23)CC12CC2 (stereo not shown) [Example 135, N-methyl-1,1-dioxo-N-[[5-(7H-pyrrolo[2,3-d]pyrimidin-4-yl)-5,8-diazaspiro[2.5]octan-8-yl]sulfonyl]thiolane-3-carboxamide]
6.30 to 7.00	> 7.00	> 7.00	> 7.00	N#CCCCNS(=O)(=O)N1CCN(c2ncnc3[nH]ccc23)CC12CC2 [Example 55, 7-(7H-Pyrrolo[2,3-d]pyrimidin-4-yl)-4,7-diaza-spiro[2.5]octane-4-sulfonic acid (3-cyano-propyl)-amide]
> 7.00	> 7.00	> 7.00	> 7.00	CN(C1CN(S(C)(=O)=O)C1)S(=O)(=O)N1CCN(c2ncnc3[nH]ccc23)CC12CC2 [Example 180, N-methyl-N-(1-methylsulfonylazetidin-3-yl)-5-(7H-pyrrolo[2,3-d]pyrimidin-4-yl)-5,8-diazaspiro[2.5]octane-8-sulfonamide]
6.30 to 7.00	> 7.00	> 7.00	> 7.00	N#CCCCN(CCCC#N)S(=O)(=O)N1CCN(c2ncnc3[nH]ccc23)CC12CC2 [Example 56, 7-(7H-Pyrrolo[2,3-d]pyrimidin-4-yl)-4,7-diaza-spiro[2.5]octane-4-sulfonic acid bis-(3-cyano-propyl)-amide]
> 7.00	> 7.00	> 7.00	> 7.00	N#CCN(C1CCC1)S(=O)(=O)N1CCN(c2ncnc3[nH]ccc23)CC12CC2 [Example 100, N-(cyanomethyl)-N-cyclobutyl-5-(7H-pyrrolo[2,3-d]pyrimidin-4-yl)-5,8-diazaspiro[2.5]octane-8-sulfonamide]
> 7.00	> 7.00	> 7.00	> 7.00	CN(C(=O)C1CCS(=O)(=O)CC1)S(=O)(=O)N1CCN(c2ncnc3[nH]ccc23)CC12CC2 [Example 139, N-methyl-1,1-dioxo-N-[[5-(7H-pyrrolo[2,3-d]pyrimidin-4-yl)-5,8-diazaspiro[2.5]octan-8-yl]sulfonyl]thiane-4-carboxamide]
< 6.30	> 7.00	6.30 to 7.00	> 7.00	CN(CCOc1cccc(C#N)c1)S(=O)(=O)N1CCN(c2ncnc3[nH]ccc23)CC12CC2 [Example 71, N-[2-(3-cyanophenoxy)ethyl]-N-methyl-5-(7H-pyrrolo[2,3-d]pyrimidin-4-yl)-5,8-diazaspiro[2.5]octane-8-sulfonamide]
6.30 to 7.00	> 7.00	> 7.00	> 7.00	CN(CC1CCN(S(C)(=O)=O)CC1)S(=O)(=O)N1CCN(c2ncnc3[nH]ccc23)CC12CC2 [Example 158, N-methyl-N-[(1-methylsulfonyl-4-piperidyl)methyl]-5-(7H-pyrrolo[2,3-d]pyrimidin-4-yl)-5,8-diazaspiro[2.5]octane-8-sulfonamide]
6.30 to 7.00	> 7.00	> 7.00	> 7.00	O=S(=O)(N(CCO)CCO)N1CCN(c2ncnc3[nH]ccc23)CC12CC2 [Example 54, 7-(7H-Pyrrolo[2,3-d]pyrimidin-4-yl)-4,7-diaza-spiro[2.5]octane-4-sulfonic acid bis-(2-hydroxy-ethyl)-amide]
